Laboratory results from EPA's ToxValDB 9.5 (doi:10.2903/j.efsa.2017.4790).

Legend:
Rattus norvegicus = settings: for LD50: acute, mortality
Apis mellifera = settings: acute, mortality
Colinus virginianus = settings: acute, oral, mortality
Folsomia candida = settings: chronic/long-term; mortality
Canidae = settings: chronic; duration: 1 years; oral; Dog Other; organ weight
Daphnia magna = settings: chronic/long-term; duration: 21 days; reproduction
Oncorhynchus mykiss = settings: chronic/long-term; duration: 21 days; behavior

Compound: CCCC(=O)Oc1c(Br)cc(C#N)cc1Br [Bromoxynil butyrate]
- LD50 (Rattus norvegicus; M/F): 116 mg/kg-day
- NOAEL (Anas platyrhynchos; chronic/long-term): 15.9 mg/kg-day
- LD50 (Apis mellifera; dermal): 199 µg/piece
- LD50 (Apis mellifera; oral, unspecified): 76.4 µg/piece
- LD50 (Colinus virginianus; diet): > 190 mg/kg-day
- LD50 (Colinus virginianus): 420 mg/kg-day
- NOEC (Folsomia candida): 125 mg/kg

Compound: CCCCCCC(=O)Oc1c(Br)cc(C#N)cc1Br [Bromoxynil heptanoate]
- LD50 (Rattus norvegicus; F): 292 mg/kg-day
- NOAEL (Rattus norvegicus; developmental, development): 4 mg/kg-day
- NOAEL (Anas platyrhynchos; reproductive): 15.9 mg/kg-day
- LD50 (Apis mellifera; dermal): > 201 µg/piece
- LD50 (Apis mellifera; oral, unspecified): > 201 µg/piece
- NOAEL (Canidae): 0.3 mg/kg-day
- LD50 (Colinus virginianus; diet): 1900 mg/kg-day
- LD50 (Colinus virginianus): 379 mg/kg-day
- NOEC (Folsomia candida): 70.5 mg/kg

Compound: N#Cc1cc(Br)c(O)c(Br)c1 [Bromoxynil]
- NOAEL (Rattus norvegicus; developmental, development): 4 mg/kg-day
- NOAEL (Rattus norvegicus; reproduction developmental, body weight): 3.39 mg/kg-day
- NOEC (Daphnia magna): 3.1 mg/L
- NOAEL (Anas platyrhynchos; reproductive): 10.9 mg/kg-day
- NOEC (Oncorhynchus mykiss): 2 mg/L
- NOAEL (Canidae): 0.3 mg/kg-day
- NOEC (Folsomia candida): 56 mg/kg
